Converted amounts (≈) assume the structure as drawn. Where two headings read alike, the source gives them in different places. Peptide text beside a SMILES is read from it.
Tests used:
IL-10 = test: Cytokine ELISA in S. aureus-infected RAW 264.7 cells; assay type: cell-based, mouse; details: 25 μg/ml, 24 h after treatment
Procedure: (§1) To investigate the effects of MP1102 and NZ2114 on cytokine levels in cells infected with S. aureus, RAW264.7 cells (2.5 × 10^5 cells/ml) seeded into 12-well plates were incubated with MRSA ATCC43300 (MOI = 100:1) for 30 min followed by treatment with 50 μg/ml lysostaphin for 1 h to remove non-phagocytosed bacteria. The cells were then treated with 25 μg/ml MP1102, NZ2114 and vancomycin for 12 h and 24 h. Cell-free culture supernatants were collected and the concentrations of cytokines (TNF-α, IL-1β and IL-10) were determined by Jiaxuan Biotech. Co. Ltd. (Beijing, China) using an ELISA kit[58],[59].

IL-1β = test: as above; assay type: cell-based, mouse; details: 25 μg/ml, 24 h after infection with MRSA ATCC43300; range over treatments
Procedure: as §1

MSSA ATCC25923 [1] = test: Mouse peritonitis model; assay type: in vivo
Procedure: The mice were infected by peritoneal injection with different S. aureus strains, including MSSA ATCC25923 (5 × 10^8 CFU), MRSA ATCC43300 (5 × 10^8 CFU) and high virulent CVCC546 (5 × 10^7 CFU), and treated with a single dose of drugs ([…], 20, 30 and 40 mg/kg for ATCC43300 and CVCC546) at 10 min after infection. Twenty-four hours after treatment, the mice were killed and peritoneal fluids were obtained by washing with 5 ml ice-cold PBS. The total number of bacteria in the fluids was determined before any further procedures and then divided into two equal fractions of 1.5 ml each for the following purposes: i) for extracellular bacteria quantification, one fraction was centrifuged for 10 min at 4 °C (300 g) and the supernatant CFU count was quantified and ii) for intracellular bacteria quantification, the other fraction was centrifuged for 5 min at 4 °C (1,000 rpm). The cells were collected and treated with 100 μg/ml gentamicin (MSSA ATCC25923) or 50 μg/ml lysostaphin (MRSA ATCC43300 and high virulent CVCC546) for 1 h at 37 °C to kill extracellular bacteria. The cells were washed twice with ice-cold PBS to remove any anti-extracellular bacterial drug. Subsequently, the cells were lysed and counted as described above for the in vitro experiment method[14],[54].

MSSA ATCC25923 [2] = test: MIC in MHB at pH 7.3 and 5.0; assay type: cell-based; details: Staphylococcus aureus
MRSA ATCC43300 [3] = test: MIC in MHB at pH 7.3 and 5.0; assay type: cell-based; details: Staphylococcus aureus
RAW 264.7 macrophages = assay type: cell-based, mouse; details: 24 h, MTT
Procedure: The cytotoxicity of MP1102 and NZ2114 was tested by a colorimetric 3-(4, 5-dimethyl-2-thiazolyl)-2, 5-diphenyl-2-H-tetrazolium bromide (MTT) assay. Cells were added into 96-well microtiter plates (2.5 × 10^4 cells/well) and incubated for 24 h. After another 24 h incubation with MP1102 and NZ2114 (1 to 256 μg/ml), MTT solution was added and incubated for 4 h. Followed the removing of the MTT, dimethyl sulfoxide (DMSO) (150 μl/well) was added and the absorbance was measured at 570 nm. Untreated cells were used as a control. The cell survival rate was calculated using the following formula: survival rate (%) = Abs570 nm of treated sample / Abs570 nm of control × 100. The cytotoxicity detection was repeated in triplicate.
118 were incubated with 1-256 μg/ml for 24 h and subsequently cell viability was determined using the MTT
119 assay. Results are means ± S.D. for three experiments.
(1 picture or pasted object on this page, not shown here)

MRSA ATCC43300 [4] = test: Extracellular dose-response in broth, 24 h; assay type: cell-based, Staphylococcus aureus
Procedure: (§2) Dose-response curves for the extracellular activities of the peptides were performed as previously described with some modifications[2],[14],[56],[57]. For extracellular activity, MSSA ATCC25923, MRSA ATCC43300 and high virulent S. aureus CVCC546 cells were adjusted to a density of 10^5 CFU/ml.
(§3) The Hill equation was used to analyze the dose-effect relationships of the intracellular and extracellular activities of MP1102 and NZ2114 against S. aureus. The Emax, Cs and goodness of fit (R^2) were calculated by non-linear regression using GraphPad Prism version 6 (GraphPad Prism Software, San Diego, CA, USA). The other statistical procedures, means and SEMs were performed and calculated using IBM SPSS Statistics 21.0.

MSSA ATCC25923 [5] = test: Extracellular dose-response in broth, 24 h; assay type: cell-based, Staphylococcus aureus
Procedure: as §2, §3

[6] = system: Virulent S. aureus CVCC546; test: Extracellular dose-response in broth, 24 h; assay type: cell-based, Staphylococcus aureus
Procedure: as §2, §3

[7] = system: MRSA ATCC43300 phagocytosed by RAW 264.7 macrophages; test: Intracellular dose-response in RAW 264.7 macrophages, 24 h; assay type: cell-based, Staphylococcus aureus
Procedure: (§4) For intracellular activity, RAW 264.7 macrophages (2.5 × 10^5 cells/ml) were seeded into a 6-well plate (1.5 ml/well) and cultured for 24 h in DMEM with 10% FBS (without antibiotics). Meanwhile, mid-log phase S. aureus strains (MSSA ATCC25923, MRSA ATCC43300 and high virulent CVCC546) were collected by centrifugation, diluted to a concentration of 2.5 × 10^7 CFU/ml in DMEM with 10% FBS (without antibiotic), and incubated with RAW 264.7 macrophages (1.5 ml/well) for 0.5 h. In total, 100 μg/ml gentamicin (for MSSA ATCC25923) or 50 μg/ml lysostaphin (for MRSA ATCC43300 and virulent CVCC546) was added to the cells and incubated for 1 h to remove non-phagocytosed bacteria. […] The numbers of intracellular bacteria were measured at 0 h and 24 h using the above method.
as §3

[8] = system: MSSA ATCC25923 phagocytosed by RAW 264.7 macrophages; test: as above; assay type: cell-based, Staphylococcus aureus; details: Hill equation
Procedure: as §4, §3

[9] = system: Virulent S. aureus CVCC546 phagocytosed by RAW 264.7 macrophages; test: as above; assay type: cell-based, Staphylococcus aureus
Procedure: as §4, §3

[10] = system: high virulent S. aureus CVCC546; test: Mouse peritonitis model; assay type: in vivo; details: 20 mg/kg, 24 h
Procedure: The mice were infected by peritoneal injection with different S. aureus strains, including MSSA ATCC25923 (5 × 10^8 CFU), MRSA ATCC43300 (5 × 10^8 CFU) and high virulent CVCC546 (5 × 10^7 CFU), and treated with a single dose of drugs (5 mg/kg for ATCC25923, 20, 30 and 40 mg/kg for ATCC43300 and CVCC546) at 10 min after infection. Twenty-four hours after treatment, the mice were killed and peritoneal fluids were obtained by washing with 5 ml ice-cold PBS. The total number of bacteria in the fluids was determined before any further procedures and then divided into two equal fractions of 1.5 ml each for the following purposes: i) for extracellular bacteria quantification, one fraction was centrifuged for 10 min at 4 °C (300 g) and the supernatant CFU count was quantified and ii) for intracellular bacteria quantification, the other fraction was centrifuged for 5 min at 4 °C (1,000 rpm). The cells were collected and treated with 100 μg/ml gentamicin (MSSA ATCC25923) or 50 μg/ml lysostaphin (MRSA ATCC43300 and high virulent CVCC546) for 1 h at 37 °C to kill extracellular bacteria. The cells were washed twice with ice-cold PBS to remove any anti-extracellular bacterial drug. Subsequently, the cells were lysed and counted as described above for the in vitro experiment method[14],[54].

macrophages = details: at 24 h; cited from earlier work
From the text: Due to several limitations (including protein binding conditions and differences in the pharmacokinetics) in the in vitro macrophage intracellular model, an in vivo mouse peritonitis model was also examined to further evaluate the intracellular efficiency of MP1102 and NZ2114. The intracellular bacterial killing efficacy of MP1102 and NZ2114 was decreased in vivo compared to extracellular killing, though the difference was less than the in vitro model, which may be related to the complex in vivo environment weakening the antibacterial efficiency and the eradication of extracellular bacteri ...

[11] = system: virulent staphylococcal strains; details: relative efficacy; cited from earlier work
From the text: This study is the first evaluation of the intracellular anti-staphylococcal properties of the NZ2114 derivative MP1102 using both in vitro and in vivo methods. […] As a corresponding in vivo mouse model, RAW 264.7 macrophages were chosen to evaluate in vitro intracellular activity in this study.

[12] = Hill equation, 95% CI in brackets
[13] = change at 24 h from original inoculum, extrapolated, Hill equation
[14] = static concentration, graphical interpolation
[15] = Intracellular, Hill equation, 95% CI in brackets
[16] = Intracellular, change at 24 h from original inoculum, extrapolated, Hill equation

CC[C@H](C)[C@@H]1NC(=O)[C@H](CO)NC(=O)[C@H](CCCCN)NC(=O)[C@@H]2CSSC[C@@H](C(=O)N[C@@H](Cc3ccc(O)cc3)C(=O)O)NC(=O)[C@H](CCCCN)NC(=O)[C@@H]3CSSC[C@H](NC(=O)[C@H](CCCCN)NC(=O)[C@H](C(C)C)NC(=O)[C@H](CC(=O)O)NC(=O)[C@H](CC(=O)O)NC(=O)[C@H](CCC(=O)O)NC(=O)[C@H](CCC(=O)O)NC(=O)[C@H](Cc4c[nH]c5ccccc45)NC(=O)[C@@H]4CCCN4C(=O)CNC(=O)[C@H](CC(N)=O)NC(=O)[C@@H](NC(=O)CNC(=O)[C@H](Cc4ccccc4)NC(=O)CN)CSSC[C@H](NC(=O)[C@H](Cc4ccc(O)cc4)NC(=O)CNC(=O)CNC(=O)[C@H](CCCCN)NC(=O)[C@H](Cc4ccc(O)cc4)NC(=O)CNC(=O)[C@H](CCCCN)NC1=O)C(=O)N[C@@H](C)C(=O)N[C@@H](CCCCN)C(=O)NCC(=O)NCC(=O)N[C@@H](Cc1ccccc1)C(=O)N[C@@H](C(C)C)C(=O)N3)C(=O)N[C@@H](Cc1c[nH]cn1)C(=O)N[C@@H](CC(N)=O)C(=O)N[C@@H](Cc1c[nH]cn1)C(=O)N2 [MP1102] (HELM PEPTIDE1{G.F.G.C.N.G.P.W.E.E.D.D.V.K.C.H.N.H.C.K.S.I.K.G.Y.K.G.G.Y.C.A.K.G.G.F.V.C.K.C.Y}$PEPTIDE1,PEPTIDE1,4:R3-30:R3|PEPTIDE1,PEPTIDE1,15:R3-37:R3|PEPTIDE1,PEPTIDE1,19:R3-39:R3$$$V2.0; N-terminus and C-terminus assumed; bridges inferred)
IL-10 level change, in contrast to the decrease with NZ2114 and vancomycin (IL-10): 4.8 pg/mL
suppressed production of IL-1β (IL-1β): 18.7 to 49.5 pg/mL
colonies on the plates (MSSA ATCC25923 [1]; 20 mg/kg and 10 mg/kg dose, data not shown): no colonies were observed

CN[C@H](CC(C)C)C(=O)N[C@H]1C(=O)N[C@@H](CC(N)=O)C(=O)N[C@H]2C(=O)N[C@H]3C(=O)N[C@H](C(=O)N[C@H](C(=O)O)c4cc(O)cc(O)c4-c4cc3ccc4O)[C@H](O)c3ccc(c(Cl)c3)Oc3cc2cc(c3O[C@@H]2O[C@H](CO)[C@@H](O)[C@H](O)[C@H]2O[C@H]2C[C@](C)(N)[C@H](O)[C@H](C)O2)Oc2ccc(cc2Cl)[C@H]1O [Vancomycin]
MIC (MSSA ATCC25923 [2]; pH 5, read-out: MICs): < 0.004 µg/mL
MIC (MSSA ATCC25923 [2]; pH 7.3, read-out: MICs): 0.125 µg/mL (≈ 0.0863 µM)
MIC (MRSA ATCC43300 [3]; pH 5, read-out: MICs): 1 µg/mL (≈ 0.69 µM)
MIC (MRSA ATCC43300 [3]; pH 7.3, read-out: MICs): 1 µg/mL (≈ 0.69 µM)
survival rate (RAW 264.7 macrophages; 128 μg/ml): 100%
survival rate (RAW 264.7 macrophages; 256 μg/ml): 85.9%
EC50 (MRSA ATCC43300 [4]; [12]): 5.40 multiples of the MIC
Emax (log CFU, 95% CI) (MRSA ATCC43300 [4]; [13]): −5.89 log CFU
Cs (MRSA ATCC43300 [4]; [14]): ~5.88 multiples of the MIC
EC50 (MSSA ATCC25923 [5]; [12]): 1.87 multiples of the MIC
Emax (log CFU, 95% CI) (MSSA ATCC25923 [5]; [13]): −5.37 log CFU
Cs (MSSA ATCC25923 [5]; [14]): ~1.48 multiples of the MIC
EC50 [6, 12]: 0.92 multiples of the MIC
Emax (log CFU, 95% CI) [6, 13]: −5.85 log CFU
Cs [6, 14]: ~1.10 multiples of the MIC
EC50 [7, 15]: 1.10 multiples of the MIC
Emax (log CFU, 95% CI) [7, 16]: 0.43 log CFU
resistant rates for the highest test concentrations compared to the untreated group ([7]; intracellular, 24 h): 93.03%
EC50 ([8]; 95% CI in brackets): 24.29 multiples of the MIC
Emax (log CFU, 95% CI) ([8]; change at 24 h from original inoculum, extrapolated to infinitely high concentration): −4.85 log CFU
EC50 [9, 15]: 3.53 multiples of the MIC
Emax (log CFU, 95% CI) [9, 16]: 0.46 log CFU
resistant rates for the highest test concentrations compared to the untreated group ([9]; intracellular, 24 h): 99.68%
IL-10 levels decreased by (IL-10): 12.0 pg/mL
effect on bacterial load (MSSA ATCC25923 [1]; 5 mg/kg, 24 h): no significant effects were observed
log reduction, extracellular [10]: 4.9 log
log reduction, intracellular [10]: 3.7 log
log reduction, total [10]: 3.9 log
accumulation in macrophages (macrophages): up to 8 fold

CC[C@H]1OC(=O)[C@H](C)[C@@H](O[C@H]2C[C@@](C)(OC)[C@@H](O)[C@H](C)O2)[C@H](C)[C@@H](O[C@@H]2O[C@H](C)C[C@H](N(C)C)[C@H]2O)[C@](C)(O)C[C@@H](C)CN(C)[C@H](C)[C@@H](O)[C@]1(C)O [azithromycin]
Emax [11]: −0.5 log CFU

C[C@@H](O)[C@H]1C(=O)N2C(C(=O)O)=C(SCCN=CN)C[C@H]12 [imipenem]
Emax [11]: −0.9 log CFU

Cc1onc(-c2ccccc2)c1C(=O)N[C@@H]1C(=O)N2[C@@H]1SC(C)(C)[C@@H]2C(=O)O [oxacillin]
Emax [11]: −0.68 log CFU
